Patent publication US20230248000A1, “ANTIMICROBIAL COMPOUNDS AND METHODS OF USE” (Aequor, Inc., priority 2016, published 2023)
“And” between values parts separate entries of the source, which are not always exact repeats. Identical values can stand only once.

Tests used:
Assay type in all cases: cell-based, Staphylococcus aureus
[1] = test system: S. aureus ATCC 25923; experiment: Minimum Inhibitory Concentration (MIC) on planktonic bacteria, CLSI M07-A9 modified for 96 well plates
[2] = test system: S. aureus ATCC 25923; experiment: Biofilm removal, MBEC Assay (ASTM E2799-12)
[3] = test system: S. aureus ATCC 25923; experiment: Biofilm prevention (inhibition), 96-well microplate assay

SMILES | MIC [1] | Biofilm Removal [2] [%] | MBEC Qualitative [2] [%] | Biofilm Prevention [3] [%]
CCCCOP(=O)(OC)OCCCC [Dibutyl methyl phosphate] | 0.24% | 99.99 | >2.3 | 99.99
CCCCOP(=O)(O)OCCCC [Dibutyl phosphate] | 0.24% and 0.01% | 99.99 | 0.24 | 99.99
